Reference: patent US20030149306A1, “Process for the preparation of polymorph of 4-(aryl)-1,2,3,4-tetrahydro-1-naphthale-namine derivative” (priority 2000, published 2003)
Entries after “also recorded” stand apart in the source; their conditions may differ. Where a name gives a salt, the structure may show the parent alone.

Key:
[1] = as compared to Form I; cited from earlier work
[2] = from a pharmaceutical formulation; cited from earlier work
[3] = compared among Forms I to V; cited from earlier work
[4] = solid-state stability of Form V (Infrared spectrum KBr and X-ray diffractogram) under storage, grinding and heating; type: physicochemical
Procedure: For example, it was stable for 3 months at 40° C. and 75% relative humidity or when subjected to grinding in a pestle and mortar or when heated upto 140° C. for 3 hours.
No change in Infrared spectrum (KBr) and X-ray diffractogram was observed after 3 months at 40° C. and 75% relative humidity or when subjected to grinding in a pestle and mortar or when heated upto 140° C. for 3 hours.

## CN[C@H]1CC[C@@H](c2ccc(Cl)c(Cl)c2)c2ccccc21 [Example T1, (1S, 4S) N-methyl-4-(3,4-dichlorophenyl)-1,2,3,4-tetrahydro-1-naphthalenamine]
[1]
  bioavailability: much-improved bioavailability

## CN[C@H]1CC[C@@H](c2ccc(Cl)c(Cl)c2)c2ccccc21 [Form I, hydrochloride salt of (1S,4S) N-methyl-4-(3,4-dichlorophenyl)-1,2,3,4-tetrahydro-1-naphthalenamine]
[2]
  dissolution rate with respect to the desired bioavailability: dissolves too slowly
[3]
  thermodynamic stability among crystalline forms: most thermodynamically stable form; also recorded: most stable crystalline form

## CN[C@H]1CC[C@@H](c2ccc(Cl)c(Cl)c2)c2ccccc21 [Form V, hydrochloride salt of (1S,4S) N-methyl-4-(3,4-dichlorophenyl)-1,2,3,4-tetrahydro-1-naphthalenamine]
[4]; 3 months at 40° C. and 75% relative humidity
  stability (change in Infrared spectrum (KBr) and X-ray diffractogram): stable
[4]; 3 months at 40° C. and 75% relative humidity, listed as Example 1
  stability (change in Infrared spectrum (KBr) and X-ray diffractogram): No change
[4]; heated upto 140° C. for 3 hours
  stability (change in Infrared spectrum (KBr) and X-ray diffractogram): stable
[4]; heated upto 140° C. for 3 hours, listed as Example 1
  stability (change in Infrared spectrum (KBr) and X-ray diffractogram): No change
[4]; subjected to grinding in a pestle and mortar
  stability (change in Infrared spectrum (KBr) and X-ray diffractogram): stable
[4]; subjected to grinding in a pestle and mortar, listed as Example 1
  stability (change in Infrared spectrum (KBr) and X-ray diffractogram): No change
